No end group written: not given here.
Key:
Raw 264.7 cells = experiment: TNF-alpha ELISA assay (TNF-alpha secretion); type: cell-based; conditions: 10 μM, 6 hours, FIG. 4
Procedure: Raw 264.7 cells (ATCC TIB-71; 3,000 cells/well) were cultured for 12 hours in DMEM medium containing 10% serum in a 96-well plate, and then cultured in serum-free medium for about 3 hours. Then, Neo-Pep polypeptide (SEQ ID NO: 1) and its fragments (SEQ ID NOS: 2 to 4) were added to the DMEM medium with the concentration of 10 μM each, and then cultured for 6 hours.
Then, the medium was collected and centrifuged at 1,000 g for 10 minutes, and secreted TNF-α was detected using a TNF-α ELISA assay (BD Biosciences, USA) according to the manufacturer's instructions.

[1] = test system: normal epithelium cells (vero); experiment: Cytotoxicity assay (Cell Counting Kit-8 assay) on normal epithelium cells; type: cell-based; conditions: 10 μM, 24 hours, CCK-8, FIG. 3
Procedure: To confirm the proliferation and cytotoxicity of the fibroblasts, the CCK-8 assay (Cell Counting Kit-8 assay) of Dojindo Molecular Technologies (Japan) was performed according to the manufacturer's instructions.
First, human foreskin fibroblast (3,000 cells/well; Promocell) and normal epithelium cells (vero; 3,000 cells/well) were cultured in DMEM medium containing 10% serum in 96-well plates for 12 hours, and then cultured in serum-free medium for about 3 hours. Then, Neo-Pep polypeptide (SEQ ID NO: 1) and fragments thereof (SEQ ID NOS: 2 to 4) were added to the DMEM medium with the concentration of 10 μM each, and then cultured for 24 hours.
Then, 10 μl of CCK-8 solution (Dojindo Molecular Technologies, Japan) was added to each well of the medium, and the absorbance was analyzed at 450 nm using a microplate reader according to the manufacturer's instructions.

Sequence	secreted TNF-alpha level versus control group (Raw 264.7 cells)	epithelium cell viability versus control group [1]
KGAEADQIIEYLKQQ [Polypeptide S1300, KGAEADQIIEYLKQQ]	very low and similar to that of control group	
AVLKRLEQKGAEADQIIEYLKQQVSLLKEKAILQATLREEK [Neo-Pep]	very low and similar to that of control group	
RLEQKGAEADQIIEY [Polypeptide S1200, RLEQKGAEADQIIEY]	very low and similar to that of control group	
IEYLKQQVSLLKEKA [Polypeptide S1400, IEYLKQQVSLLKEKA]	very low and similar to that of control group	slightly lower

From patent publication US10800824B2, “AIMP1 protein fragment and skin-protecting composition containing same as active ingredient” (NEOMICS CO., LTD., priority 2016, dated 2020)
